Reference: article PMC11505038, “Kalata B1 Enhances Temozolomide Toxicity to Glioblastoma Cells” (Biomedicines, 2024)

Key:
[1] = test system: U-87 MG glioblastoma cells; assay: MTT co-exposure of synthetic Kalata B1 and TMZ in U-87 MG cells; format: cell-based, human; conditions: TMZ 100 µM + synthetic Kalata B1 0.5 µM, MTT 72 h, ANOVA/Tukey
Protocol: To calculate TMZ IC50 values in each cell line, TMZ was dissolved in DMSO at a stock concentration of 103 mM, which was then diluted into culture medium on the day of use, with the DMSO final concentration always less than 0.1%. The following concentrations of TMZ were used in the experiments: 0.5, 5, 50, 500, 2500, 5000 μM. The media were sterilized for each treatment media with a 0.22 μm filter before they were added to cell cultures. […]
In accordance with the methods developed by Mosmann and colleagues, the MTT assay was conducted using the Roche cell proliferation kit (Cat. No. 11465007001). […] The MTT is originally a yellow tetrazolium salt that undergoes a colorimetric change to purple formazan crystals, and the change in absorbance can be measured as an indicator of cell viability/proliferation. […]
Figure 8 Synthetic Kalata B1 increased TMZ-induced cell death in U-87 MG glioblastoma cultures. To determine if synthetic Kalata B1 (K) enhances TMZ (T)-induced cell death in U-87 MG cells, MTT was measured after incubating the cell cultures with concentrations of K (0.5, 1.0, 2.0, and 4.0 μM) and T (100, 200, 400, and 800 μM) both alone and when co-exposed to synthetic Kalata B1 and TMZ as illustrated in panels (A–M). […] Cell viability was measured using MTT and expressed as a percentage of control cultures (culture medium with DMSO only). […]

[2] = test system: T-98G human glioblastoma cells; assay: cells; conditions: read-out: IC50 (μM) ± S.D.; T-98G, MTT, 72 h, 6000 cells/well, best fit nonlinear regression, triplicate wells, n = 3
Protocol: (§1) SH-SY5Y human neuroblastoma cells (population doubling (PD) 20−24), T-98G, and U-87 MG human glioblastoma cells were removed from cryogenic storage, thawed rapidly in a water bath (37 °C) and reconstituted in 75 cm^2 flasks. For SH-SY5Y, the following media were used: Dulbecco’s modified Eagle’s medium/Nutrient F12 Ham (Sigma-Aldrich, Cat. No. D8437) containing 10% heat-inactivated fetal bovine serum, 4 mM L-glutamine, 100 U/mL penicillin, and 100 μg/mL streptomycin. For U-87 MG and T-98G Eagle’s minimal essential medium (ATCC: The Global Bioresource Center, Cat. No. ATCC 30-2003), containing 10% heat-inactivated fetal bovine serum, 4 mM L-glutamine, 100 U/mL penicillin, and 100 μg/mL streptomycin were used.
(§2) Cells were incubated at 37 °C in a humidified atmosphere of 5% CO2 and 95% air until recovered and ready for passaging (approximately 4 days). At between 80% and 90% confluence, the cells were trypsinized with warm (37 °C) sterile 0.5% Trypsin-EDTA (Thermo Fisher, Cat. No. 15400054) and passaged into 175 cm^2 flasks, where they were left to multiply until they reached 80−90% confluence. To plate cells: cultures were trypsinized, resuspended in 20 mL sterile PBS, counted using a cell counter (Olympus cell counter model R1), and plated in 96-well plates at an optimal density of 6000 cells/well in the designated culture media. The cells were left to adhere overnight before treatment the following day, when the culture medium was removed and replaced with the treatment medium. All incubations were conducted in triplicate wells and repeated at least three times (n = 3).
(§3) To calculate TMZ IC50 values in each cell line, TMZ was dissolved in DMSO at a stock concentration of 103 mM, which was then diluted into culture medium on the day of use, with the DMSO final concentration always less than 0.1%. The following concentrations of TMZ were used in the experiments: 0.5, 5, 50, 500, 2500, 5000 μM. The media were sterilized for each treatment media with a 0.22 μm filter before they were added to cell cultures. To determine the IC50 values for each cyclotide in each cell type, cyclotides were dissolved into 10% DMSO and then dilutions used to screen cyclotides with a final DMSO concentration of less than 0.1% The following concentrations of cyclotides were used: 0.1, 1, 5, 10 μM. For co-exposure experiments, a simultaneous exposure of cyclotide and TMZ at each respective dose was added to cell cultures (100 μL final volume per well).
(§4) In accordance with the methods developed by Mosmann and colleagues, the MTT assay was conducted using the Roche cell proliferation kit (Cat. No. 11465007001). Briefly, cells that are active can cleave MTT. The MTT is originally a yellow tetrazolium salt that undergoes a colorimetric change to purple formazan crystals, and the change in absorbance can be measured as an indicator of cell viability/proliferation. For these experiments, cells were plated into 96-well flat-bottom plates, as described in the cell culture above. […] To align with our previous work, experiments were conducted with a 72 h time frame for cytotoxicity evaluation.
(§5) After a 72 h incubation period, plates were removed from the incubator and 10 µL of MTT was added to each well. The plates were returned to the incubator for an additional 4 h, after which 100 µL of a solubilization solution was added to each well. The plates were returned to incubation overnight, and the next day absorbances were read at 570 nm on a Molecular Devices FlexStation 3 using SoftMax Pro Microplate Data Acquisition and Analysis Software (version 7.0.2).

[3] = test system: U-87 MG human glioblastoma cells; assay: cells; conditions: read-out: IC50 (μM) ± S.D.; U-87 MG, MTT, 72 h, 6000 cells/well, cyclotides 0.1-10 μM, TMZ 0.5-5000 μM, best fit nonlinear regression, triplicate wells, n = 3
Protocol: as §1, §2, §3, §4, §5

[4] = Human serum stability assay (UPLC-MS); conditions: 37 °C
Protocol: Established protocols were used to analyze peptide stability in human serum isolated from male AB plasma (Sigma-Aldrich). Briefly, thawed plasma was centrifuged for 10 min at 15,000× g to concentrate lipids. The supernatant was carefully removed with a Pasteur pipette and incubated for 15 min at 37 °C, 5% CO2. […] Controls were synthetic Kalata B1 or TMZ in PBS that were incubated in parallel with human serum test compounds. Serum proteins were denatured with urea (final concentration of 3M) at 4 °C for 10 min., at each time point. Afterwards, trichloroacetic acid (7% final v/v) was added for 10 min to precipitate the proteins. Each sample was centrifuged for 10 min at 15,000× g; the supernatant was removed an evaluated in triplicate using UPLC-MS.
We conducted peptide stability assays in human serum isolated from male AB plasma and then analyzed with UPLC-MS. Synthetic Kalata B1 and TMZ were incubated with human serum and the portion of the peptide remaining was quantified by calculating the area of the respective elution peak in UPLC-MS, compared to the control.
Percentage of Kalata B1 and TMZ remaining upon incubation with human serum. The portion of serum-treated peptide remaining was determined by calculating the area of the respective elution peak in UPLC-MS and comparing it with the control without incubation. Data points are means ± SEM.

mice = conditions: cited from earlier work
Description: (§6) The development of an in vivo mouse model is vital, yet it requires expertise, significant finances, and large quantities of the target cyclotide. […] A mouse model of anaplastic large cell lymphoma (ALCL) was developed, and the Kalata B1 mutant, named [T20K] Kalata B1, decreased tumor weight and increased ...

glioblastoma cells = conditions: cytotoxicity; ref Our previous research; cited from earlier work
U-251 glioblastoma cells = conditions: MTT; cited from earlier work
[5] = test system: primary human brain endothelial cells; conditions: SYTOX green assay; cited from earlier work
Description: Challenges commonly associated with treating cancer can include low drug uptake across the cellular lipid bilayer, the activity of pumps, such as p-glycoprotein, that efflux drugs out of the cell, and the impenetrability of the blood–brain barrier. Our previous research provided supporting evidence that cyclotides such as CyO2 can act as adjuvants in drug-resistant breast cancer cells, whereby cyclotides sensitize human breast adenocarcinoma (MCF-7) and drug-resistant human breast adenocarcinoma (MCF-7/ADR) cells to the FDA-approved anti-cancer drug, doxorubicin. In that case, one ...

U-87 glioblastoma cells = conditions: MTT; cited from earlier work
U-87 MG cells = conditions: U-87 MG; cited from earlier work
[6] = test system: anaplastic large cell lymphoma (ALCL); conditions: mouse model of anaplastic large cell lymphoma; cited from earlier work
Description: as §6

interleukin-2 (IL-2) = conditions: cited from earlier work
Description: Although a mechanistic evaluation of Kalata B1 bioactivity was beyond the scope of this research, a brief discussion of the previous mechanistic studies is justified. For instance, Henriques and colleagues provided supporting evidence that cyclotides can target phosphatidylethanolamine (PE)-enriched phospholipids and penetrate the cell via both endocytosis and membrane translocation.

CC(C)C[C@@H]1NC(=O)CNC(=O)[C@H](CC(N)=O)NC(=O)[C@H](CCCNC(=N)N)NC(=O)[C@H]([C@@H](C)O)NC(=O)[C@@H]2CSSC[C@@H]3NC(=O)[C@H]([C@@H](C)O)NC(=O)CNC(=O)CNC(=O)[C@H](C(C)C)NC(=O)[C@@H]4CSSC[C@H](NC(=O)[C@H]([C@@H](C)O)NC(=O)[C@H](CSSC[C@H](NC(=O)[C@H](C(C)C)NC(=O)[C@@H]5CCCN5C1=O)C(=O)NCC(=O)N[C@@H](CCC(=O)O)C(=O)N[C@@H]([C@@H](C)O)C(=O)N4)NC(=O)CNC(=O)[C@@H]1CCCN1C(=O)[C@H]([C@@H](C)O)NC(=O)[C@H](CC(N)=O)NC3=O)C(=O)N[C@@H](CO)C(=O)N[C@@H](Cc1c[nH]c3ccccc13)C(=O)N1CCC[C@H]1C(=O)N[C@@H](C(C)C)C(=O)N2 [Kalata B1 (synthetic), Kalata B1]
Fold lower TMZ concentration than TMZ IC50 still giving significant cytotoxicity on co-exposure [1]: 16 fold
IC50 [2]: 2.6 ± 0.24 µM
IC50 [3]: 5.4 ± 1.06 µM
Stability in human serum (in words) ([4]; data points of 3 h, 8 h and 24 h, human serum from male AB plasma, 300 µM stock diluted 10 times, UPLC-MS peak area vs control, triplicate, listed as synthetic Kalata B1): remains stable
Time for which the peptide remains stable in human serum ([4]; human serum isolated from male AB plasma, UPLC-MS): at least 24 h

Cycloviolacin O2 [CyO2]
In vivo toxicity at 1.5 mg/kg (mice; mice treated with 1.5 mg/kg in tumor mouse models): no signs of discomfort
In vivo toxicity, single injection at 2 mg/kg (mice; mice, single injection 2 mg/kg): lethal
IC50 (glioblastoma cells): 4500 nM
IC50 (U-251 glioblastoma cells): 790 nM
Membrane disruption [5]: did not produce significant membrane disruption
IC50 (U-87 glioblastoma cells): 450 nM
Fold less TMZ required for significant cell death on co-exposure with the cyclotide (U-87 MG cells): 8 fold

[T20K] Kalata B1: a Kalata B1 mutant (cyclo(GLPVCGETCVGGTCNTPGCKCSWPVCTRN); disulfide (positions not given here); ends not checked; also: disulfides, places not given here; UniProt P56254 89-117, looked up, variant T20K)
Anti-tumor effect in ALCL mouse model [6]: decreased tumor weight and increased apoptosis
Effect on IL-2 expression, IL-2 cytokine secretion and IL-2 gene expression (interleukin-2 (IL-2)): could decrease
